# Test results from PubChem BioAssay AID1963976 (Molecular Pharmacology Branch, DTP, NCI, 2024).
# Several values for one entry are separate records, joined by “and”; a condition that tells them apart may be missing. Equal entries are not always repeated.
# Test system: 435261-313-R-J1-PDC tumor spheroid viability
# Experiment: Anticancer human tumor 435261-313-R-J1-PDC patient-derived colon adenocarcinoma cell line growth inhibition [PI3K]
# Conditions: spheroids with HUVEC and MSC; for viability, T/C: stronger effect = lower value
# In short: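 Three cell types, namely tumor cells, endothelial cells and mesenchymal stem cells, formed each spheroid. Combinations with four PI3K inhibitors were screened at clinically achievable concentrations decreasing by half-log, and spheroid viability was recorded.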
# [1] = curve of first compound, second compound 0.0316 µM
# [2] = curve of first compound, second compound 0.1 µM
# [3] = curve of first compound, second compound 0.316 µM
# [4] = curve of first compound, second compound 1 µM
# [5] = second compound 0.0316 µM, first compound 0.0316 µM
# [6] = second compound 0.0316 µM, first compound 0.1 µM
# [7] = second compound 0.0316 µM, first compound 0.316 µM
# [8] = second compound 0.0316 µM, first compound 1 µM
# [9] = second compound 0.0316 µM, first compound 3.16 µM
# [10] = second compound 0.0316 µM, first compound 10 µM
# [11] = second compound 0.1 µM, first compound 0.0316 µM
# [12] = second compound 0.1 µM, first compound 0.1 µM
# [13] = second compound 0.1 µM, first compound 0.316 µM
# [14] = second compound 0.1 µM, first compound 1 µM
# [15] = second compound 0.1 µM, first compound 3.16 µM
# [16] = second compound 0.1 µM, first compound 10 µM
# [17] = second compound 0.316 µM, first compound 0.0316 µM
# [18] = second compound 0.316 µM, first compound 0.1 µM
# [19] = second compound 0.316 µM, first compound 0.316 µM
# [20] = second compound 0.316 µM, first compound 1 µM
# [21] = second compound 0.316 µM, first compound 3.16 µM
# [22] = second compound 0.316 µM, first compound 10 µM
# [23] = second compound 1 µM, first compound 0.0316 µM
# [24] = second compound 1 µM, first compound 0.1 µM
# [25] = second compound 1 µM, first compound 0.316 µM
# [26] = second compound 1 µM, first compound 1 µM
# [27] = second compound 1 µM, first compound 3.16 µM
# [28] = second compound 1 µM, first compound 10 µM
# [29] = curve of first compound, second compound 0.00316 µM
# [30] = curve of first compound, second compound 0.01 µM
# [31] = second compound 0.00316 µM, first compound 0.0316 µM
# [32] = second compound 0.00316 µM, first compound 0.1 µM
# [33] = second compound 0.00316 µM, first compound 0.316 µM
# [34] = second compound 0.00316 µM, first compound 1 µM
# [35] = second compound 0.01 µM, first compound 0.0316 µM
# [36] = second compound 0.01 µM, first compound 0.1 µM
# [37] = second compound 0.01 µM, first compound 0.316 µM
# [38] = second compound 0.01 µM, first compound 1 µM
# 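Also: spheroids exposed to compounds for 7 days.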
smiles,measurement,setting,value
C#Cc1c(F)ccc2cc(O)cc(-c3ncc4c(N5CC6CCC(C5)N6)nc(OCC56CCCN5CC(F)C6)nc4c3F)c12 (stereo not drawn) + CC(Nc1ncnc2nc[nH]c12)c1cc2cccc(Cl)c2c(=O)n1-c1ccccc1,IC50,[1],6850 nM
same,IC50,[2],> 10000 nM
same,IC50,[3],7210 nM
same,IC50,[4],5490 nM
same,IC50,"curve of first compound, second compound 3.16 µM",4510 nM
same,IC50,"curve of first compound, second compound 10 µM",319 nM
same,"viability, T/C",[5],78.7%
same,"viability, T/C",[6],100%
same,"viability, T/C",[7],98.3%
same,"viability, T/C",[8],89.3%
same,"viability, T/C",[9],81.9%
same,"viability, T/C",[10],34.5%
same,"viability, T/C",[11],97.8%
same,"viability, T/C",[12],109%
same,"viability, T/C",[13],72.2%
same,"viability, T/C",[14],82%
same,"viability, T/C",[15],68.2%
same,"viability, T/C",[16],56%
same,"viability, T/C",[17],89%
same,"viability, T/C",[18],85.3%
same,"viability, T/C",[19],79.8%
same,"viability, T/C",[20],105%
same,"viability, T/C",[21],103%
same,"viability, T/C",[22],33.2%
same,"viability, T/C",[23],94.9%
same,"viability, T/C",[24],70.4%
same,"viability, T/C",[25],82.3%
same,"viability, T/C",[26],103%
same,"viability, T/C",[27],67%
same,"viability, T/C",[28],31.4%
same,"viability, T/C","second compound 3.16 µM, first compound 0.0316 µM",62%
same,"viability, T/C","second compound 3.16 µM, first compound 0.1 µM",66.2%
same,"viability, T/C","second compound 3.16 µM, first compound 0.316 µM",43.3%
same,"viability, T/C","second compound 3.16 µM, first compound 1 µM",90.6%
same,"viability, T/C","second compound 3.16 µM, first compound 3.16 µM",50.1%
same,"viability, T/C","second compound 3.16 µM, first compound 10 µM",32.7%
same,"viability, T/C","second compound 10 µM, first compound 0.0316 µM",56.5%
same,"viability, T/C","second compound 10 µM, first compound 0.1 µM",46.9%
same,"viability, T/C","second compound 10 µM, first compound 0.316 µM",52.3%
same,"viability, T/C","second compound 10 µM, first compound 1 µM",34.9%
same,"viability, T/C","second compound 10 µM, first compound 3.16 µM",18.8%
same,"viability, T/C","second compound 10 µM, first compound 10 µM",13.7%
CC1(C)CCC(Nc2ncc(C(F)(F)F)c(-c3c[nH]c4c(P(C)(C)=O)c(C#N)ccc34)n2)CN1 (stereo not drawn) + COc1c(OCCCN2CCOCC2)ccc2c3n(c(=NC(=O)c4cnc(N)nc4)nc12)CCN3,IC50,[29],3170 nM
same,IC50,[30],31.6 nM
same,IC50,[1],< 31.6 nM
same,IC50,[2],< 31.6 nM
same,IC50,[3],< 31.6 nM
same,IC50,[4],< 31.6 nM
same,"viability, T/C",[31],56.2%
same,"viability, T/C",[32],58.8%
same,"viability, T/C",[33],54.5%
same,"viability, T/C",[34],57.2%
same,"viability, T/C","second compound 0.00316 µM, first compound 3.16 µM",50.1%
same,"viability, T/C","second compound 0.00316 µM, first compound 10 µM",0.44%
same,"viability, T/C",[35],42.3%
same,"viability, T/C",[36],43.9%
same,"viability, T/C",[37],49.2%
same,"viability, T/C",[38],47.7%
same,"viability, T/C","second compound 0.01 µM, first compound 3.16 µM",58.8%
same,"viability, T/C","second compound 0.01 µM, first compound 10 µM",0.48%
same,"viability, T/C",[5],31.6%
same,"viability, T/C",[6],32.6%
same,"viability, T/C",[7],33.7%
same,"viability, T/C",[8],30.9%
same,"viability, T/C",[9],21.5%
same,"viability, T/C",[10],0.35%
same,"viability, T/C",[11],17.8%
same,"viability, T/C",[12],16.8%
same,"viability, T/C",[13],15.5%
same,"viability, T/C",[14],18.6%
same,"viability, T/C",[15],7.14%
same,"viability, T/C",[16],0.28%
same,"viability, T/C",[17],7.08%
same,"viability, T/C",[18],6.11%
same,"viability, T/C",[19],5.71%
same,"viability, T/C",[20],5.56%
same,"viability, T/C",[21],2.4%
same,"viability, T/C",[22],0.23%
same,"viability, T/C",[23],3.57%
same,"viability, T/C",[24],2.68%
same,"viability, T/C",[25],3.18%
same,"viability, T/C",[26],2.83%
same,"viability, T/C",[27],1.6%
same,"viability, T/C",[28],0.23%
Cn1ncc(Cl)c1-c1cc(C(=O)NC(CN)Cc2cccc(F)c2)sc1Cl (stereo not drawn),"viability, T/C",compound 0.0316 µM,104% and 107% and 76.9%
same,"viability, T/C",compound 0.1 µM,82.6% and 66.1% and 92.1%
same,"viability, T/C",compound 0.316 µM,70.9% and 90.8% and 66.1%
same,"viability, T/C",compound 1 µM,26.1% and 32.2% and 54.4%
same,"viability, T/C",compound 3.16 µM,20.6% and 20.1% and 23.6%
same,"viability, T/C",compound 10 µM,8.15% and 8% and 9.52%
same,IC50,curve of compound,641 nM and 571 nM and 978 nM
CCN1CCN(Cc2ccc(Nc3ncc(F)c(-c4cc(F)c5nc(C)n(C(C)C)c5c4)n3)nc2)CC1 + CC(Nc1ccc2c(c1)OCCn1cc(N3C(=O)OCC3C(F)F)nc1-2)C(N)=O,IC50,[29],124 nM
same,IC50,[30],30.8 nM
same,IC50,[1],20.6 nM
same,IC50,[2],< 3.16 nM
same,IC50,[3],< 3.16 nM
same,IC50,[4],< 3.16 nM
same,"viability, T/C","second compound 0.00316 µM, first compound 0.00316 µM",94%
same,"viability, T/C","second compound 0.00316 µM, first compound 0.01 µM",71.5%
same,"viability, T/C",[31],53.1%
same,"viability, T/C",[32],66.9%
same,"viability, T/C",[33],37%
same,"viability, T/C",[34],33.9%
same,"viability, T/C","second compound 0.01 µM, first compound 0.00316 µM",71.5%
same,"viability, T/C","second compound 0.01 µM, first compound 0.01 µM",103%
same,"viability, T/C",[35],49.1%
same,"viability, T/C",[36],46.4%
same,"viability, T/C",[37],33.8%
same,"viability, T/C",[38],33.8%
same,"viability, T/C","second compound 0.0316 µM, first compound 0.00316 µM",73.6%
same,"viability, T/C","second compound 0.0316 µM, first compound 0.01 µM",58.5%
same,"viability, T/C",[5],47.3%
same,"viability, T/C",[6],29.1%
same,"viability, T/C",[7],28.3%
same,"viability, T/C",[8],30.5%
same,"viability, T/C","second compound 0.1 µM, first compound 0.00316 µM",37.7%
same,"viability, T/C","second compound 0.1 µM, first compound 0.01 µM",20.3%
same,"viability, T/C",[11],25.9%
same,"viability, T/C",[12],21.1%
same,"viability, T/C",[13],19.8%
same,"viability, T/C",[14],25.3%
same,"viability, T/C","second compound 0.316 µM, first compound 0.00316 µM",17.9%
same,"viability, T/C","second compound 0.316 µM, first compound 0.01 µM",20.8%
same,"viability, T/C",[17],16.7%
same,"viability, T/C",[18],16.8%
same,"viability, T/C",[19],17.2%
same,"viability, T/C",[20],16%
same,"viability, T/C","second compound 1 µM, first compound 0.00316 µM",17.1%
same,"viability, T/C","second compound 1 µM, first compound 0.01 µM",15.3%
same,"viability, T/C",[23],14%
same,"viability, T/C",[24],15.2%
same,"viability, T/C",[25],15.1%
same,"viability, T/C",[26],13.4%
